# Measurements from ChEMBL document CHEMBL3045590, “Design, synthesis, bioactivity, and structure-activity relationship (SAR) studies of novel benzoylphenylureas containing oxime ether group” (2008).
# Columns and labels:
# Format in all cases: functional
# Mythimna separata [1] = test: Larvicidal activity against fourth-instar larval stage of Mythimna separata (Oriental armyworm) in compound-pretreated corn leaves assessed as mortality at 50 mg/l at 25 +/-1 degC after 4 days
# Culex pipiens pallens [2] = test: Larvicidal activity against fourth-instar larval stage of Culex pipiens pallens (mosquito) assessed as mortality at 0.5 mg/l at 25 +/-1 degC after 8 days; conditions: 192 h
# Mythimna separata [3] = test: Larvicidal activity against fourth-instar larval stage of Mythimna separata (Oriental armyworm) in compound-pretreated corn leaves assessed as mortality at 200 mg/l at 25 +/-1 degC after 4 days
# Mythimna separata [4] = test: Larvicidal activity against fourth-instar larval stage of Mythimna separata (Oriental armyworm) in compound-pretreated corn leaves assessed as mortality at 100 mg/l at 25 +/-1 degC after 4 days
# Culex pipiens pallens [5] = test: Larvicidal activity against fourth-instar larval stage of Culex pipiens pallens (mosquito) assessed as mortality at 0.1 mg/l at 25 +/-1 degC after 8 days; conditions: 192 h
# Cucumis sativus = test: Growth regulation of Cucumis sativus (cucumber) seeds assessed as stimulation of radicle growth at 10 mg/l at 26 degC after 5 days
# Culex pipiens pallens [6] = test: Larvicidal activity against fourth-instar larval stage of Culex pipiens pallens (mosquito) assessed as mortality at 0.25 mg/l at 25 +/-1 degC after 8 days; conditions: 192 h
# Culex pipiens pallens [7] = test: Larvicidal activity against fourth-instar larval stage of Culex pipiens pallens (mosquito) assessed as mortality at 1 mg/l at 25 +/-1 degC after 8 days; conditions: 192 h
# Mythimna separata [8] = test: Larvicidal activity against fourth-instar larval stage of Mythimna separata (Oriental armyworm) in compound-pretreated corn leaves assessed as mortality at 25 mg/l at 25 +/-1 degC after 4 days
# Culex pipiens pallens [9] = test: Larvicidal activity against fourth-instar larval stage of Culex pipiens pallens (mosquito) assessed as mortality at 0.01 mg/l at 25 +/-1 degC after 8 days; conditions: 192 h
# Culex pipiens pallens [10] = test: Larvicidal activity against fourth-instar larval stage of Culex pipiens pallens (mosquito) assessed as mortality at 0.025 mg/l at 25 +/-1 degC after 8 days; conditions: 192 h
# Culex pipiens pallens [11] = test: Larvicidal activity against fourth-instar larval stage of Culex pipiens pallens (mosquito) assessed as mortality at 0.05 mg/l at 25 +/-1 degC after 8 days; conditions: 192 h
# Mythimna separata [12] = test: Larvicidal activity against fourth-instar larval stage of Mythimna separata (Oriental armyworm) in compound-pretreated corn leaves assessed as mortality at 5 mg/l at 25 +/-1 degC after 4 days
# Mythimna separata [13] = test: Larvicidal activity against fourth-instar larval stage of Mythimna separata (Oriental armyworm) in compound-pretreated corn leaves assessed as mortality at 10 mg/l at 25 +/-1 degC after 4 days
# Mythimna separata [14] = test: Larvicidal activity against fourth-instar larval stage of Mythimna separata (Oriental armyworm) in compound-pretreated corn leaves assessed as mortality at 2.5 mg/l at 25 +/-1 degC after 4 days
# Mythimna separata [15] = test: Larvicidal activity against fourth-instar larval stage of Mythimna separata (Oriental armyworm) in compound-pretreated corn leaves assessed as mortality at 1 mg/l at 25 +/-1 degC after 4 days
SMILES,mortality at 50 µg/mL (Mythimna separata [1]),mortality at 0.5 µg/mL (Culex pipiens pallens [2]),mortality at 200 µg/mL (Mythimna separata [3]),mortality at 100 µg/mL (Mythimna separata [4]),mortality at 0.1 µg/mL (Culex pipiens pallens [5]),Activity (Cucumis sativus),mortality at 0.25 µg/mL (Culex pipiens pallens [6]),mortality at 1 µg/mL (Culex pipiens pallens [7]),mortality at 25 µg/mL (Mythimna separata [8]),mortality at 0.01 µg/mL (Culex pipiens pallens [9]),mortality at 0.025 µg/mL (Culex pipiens pallens [10]),mortality at 0.05 µg/mL (Culex pipiens pallens [11]),mortality at 5 µg/mL (Mythimna separata [12]),mortality at 10 µg/mL (Mythimna separata [13]),mortality at 2.5 µg/mL (Mythimna separata [14]),mortality at 1 µg/mL (Mythimna separata [15])
O=C(NC(=O)c1c(F)cccc1F)Nc1ccc(/C=N/OCc2ccccc2)cc1,10%,100%,40%,30%,10%,60%,20%,100%,0%,–,–,–,–,–,–,–
CO/N=C/c1ccc(NC(=O)NC(=O)c2c(F)cccc2F)cc1,40%,100%,–,90%,100%,30%,100%,100%,0%,0%,10%,100%,–,–,–,–
CCO/N=C/c1ccc(NC(=O)NC(=O)c2c(F)cccc2F)cc1,100%,100%,–,100%,100%,0%,100%,100%,75%,0%,10%,–,0%,10%,–,–
CCCO/N=C/c1ccc(NC(=O)NC(=O)c2c(F)cccc2F)cc1,70%,100%,–,80%,100%,–,100%,100%,20%,–,0%,50%,–,–,0%,–
O=C(NC(=O)c1c(F)cccc1F)Nc1ccc(/C=N/OCCCl)cc1,100%,100%,–,–,90%,110%,100%,100%,–,0%,20%,90%,75%,100%,55%,0%
O=C(NC(=O)c1c(F)cccc1F)Nc1ccc(/C=N/OCCF)cc1,90%,100%,–,–,60%,110%,100%,100%,90%,–,0%,10%,–,20%,0%,–
C=CCO/N=C/c1ccc(NC(=O)NC(=O)c2c(F)cccc2F)cc1,66.7%,100%,–,90%,90%,120%,100%,100%,10%,–,0%,–,–,0%,–,–
C#CCO/N=C/c1ccc(NC(=O)NC(=O)c2c(F)cccc2F)cc1,100%,100%,–,–,100%,–,100%,100%,75%,0%,10%,40%,–,55%,10%,0%
COC(=O)CO/N=C/c1ccc(NC(=O)NC(=O)c2c(F)cccc2F)cc1,56.7%,100%,90%,80%,0%,–,80%,100%,30%,–,–,–,–,10%,0%,–
COCCO/N=C/c1ccc(NC(=O)NC(=O)c2c(F)cccc2F)cc1,0%,0%,40%,10%,–,30%,–,100%,–,–,–,–,–,–,–,–
CCCCO/N=C/c1ccc(NC(=O)NC(=O)c2c(F)cccc2F)cc1,0%,100%,50%,40%,100%,50%,100%,100%,–,–,0%,100%,–,–,–,–
CC(C)CO/N=C/c1ccc(NC(=O)NC(=O)c2c(F)cccc2F)cc1,80%,100%,–,100%,100%,45%,100%,100%,30%,0%,10%,10%,–,–,0%,–
O=C(NC(=O)c1c(F)cccc1F)Nc1ccc(/C=N/OC2CCCC2)cc1,0%,100%,70%,20%,100%,85%,100%,100%,–,–,0%,10%,–,–,–,–
